Data published in PMC10869804 (Scientific Reports, 2024).

Legend:
[1] = target: 6xHis-Flag affinity tagged Orf63 from lambda bacteriophage (phage λ); assay: SEC-MALS; 2 mg/mL Orf63; 10 mM Tris-HCl, 0.15 M NaCl, pH 8.0; SEC300A column at 0.2 mL/min
[2] = target: fluorescent designed Orf63 binding peptide FAM-Ahx-…; assay: fluorescence polarisation; 10 nM fluorescent peptide with varying concentrations of Orf63 (per protomer) in PBS pH 7.4; 1:1 binding function, each peptide assumed to bind each protomer independently
15N-Orf63 dimer = assay: 15N-HSQC mixing experiment with ubiquitin fusion proteins; assay type: binding, lambda bacteriophage; settings: 2:1 ubiquitin fusion to 15N-Orf63 dimer, 5 mM Tris-Cl pH 7.4, 50 mM NaCl
Experimental: Amino acid substitution mutants were prepared using the Q5 mutagenesis method (New England Biolabs) with oligonucleotides from IDT. […] At an A600 of 0.8, expression was induced by the addition of 1 mM isopropyl thiogalactoside (IPTG), and the culture was grown for 3 h further before harvesting. Detailed information regarding the purification of this fragment by nickel affinity and gel filtration chromatography has been published previously. For NMR spectroscopy, a uniformly ^13C, ^15N isotopically labelled protein sample was made from a 1 L culture containing M9 minimal media salts supplemented with 3 g of ^13C-glucose (Sigma-Aldrich), 1 g of ^15N ammonium chloride (Sigma-Aldrich) and 1 g of ^13C,^15N Celtone algal extract (Cambridge Isotopes). Natural abundance Orf63 proteins were prepared using a similar protocol except cultures were grown in LB media. Protein concentrations were estimated by UV absorbance at 280 nm. […]
design ubiquitin […]
control ubiquitin […]
(a) A mixing experiment was performed with 15N-Orf63 and a Ubiquitin-fusion protein with a C-terminal extension corresponding to a designed peptide, or an unrelated peptide control. The mixing ratio was 2:1 (Ubiquitin fusion […]
(b,c) 15N-HSQC spectra of 15N-Orf63
(blue) and 15N-Orf63 mixed with a Ubiquitin fusion protein. Asterisks denote peaks that were […]

Orf63 = assay: 1H,15N-HSQC comparison of Orf63-linker-peptide hybrid protein with Orf63; assay type: binding, lambda bacteriophage; settings: 0.15 mM 15N-labeled 6xHis-Flag-Orf63-linker-peptide vs 0.15 mM 15N-labeled 6xHis-Flag-Orf63
15N-Orf63 = assay: 15N-HSQC titration / chemical shift perturbation (CSP) mapping of peptide binding; set-up: species or system lambda bacteriophage
Experimental: (a) ^1H-^15N chemical shift perturbations (CSPs) measured between ^15N-Orf63 free, and in complex with a unlabelled designed peptide. Blue shading highlights a CSP > 0.05.
A titration was performed by acquiring a series of ^15N-HSQC spectra of 0.48 mM ^15N-Orf63 (monomeric concentration) with 0.12, 0.24, 0.36, 0.48, and 0.60 mM peptide ([…]) manufactured by GenScript (Piscataway, NJ) in phosphate buffered saline pH 7.4. Assignments of peptide-bound ^15N-Orf63, particularly through two helical regions, were made by walking through HN-HN correlations in a 3D 15N-NOESY spectrum.
Most resonances during the […]
throughout the two a-helical regions, was confirmed by an HN-HN walk through a 3D 15N-NOESY spectrum. Unassigned resonances N-terminal helix a1 and C-terminal to helix a2 are likely unstructured due to the absence of i,i+3, i,i+4, and HN-HN NOEs. The residue numbering follows the PDB file 8DSB and the expressed protein with N-terminal affinity […]
(1 picture or pasted object on this page, not shown here)

[3] = tested on: lysogenic or lytic developmental outcome of phage λ infection; settings: period to new viral progeny, bacterial survivors, conversion to lysogens; ref [8],[11]; cited from earlier work

Molecule: 6xHis-Flag affinity tagged Orf63 from lambda bacteriophage (natural protein)
- stoichiometry N [1]: 2
- Kd [2]: 3.1 µM

Molecule: DTKELILAIARKVKEMIKNS [Ubiquitin fusion protein]
- line broadening / chemical shift changes (15N-Orf63 dimer): significant line broadening suggesting binding was occurring
- line broadening / chemical shift changes (15N-Orf63 dimer; listed as design): severely line broadened

Molecule: DTKELILAIARKVKEMIKNS [hybrid protein]
- spectrum of hybrid protein relative to Orf63 (Orf63): resembled Orf63 with additional peaks from the helical ligand along with a set of chemical shift changes

Molecule: DTKELILAIARKVKEMIKNS [synthetic peptide]
- saturation of the complex (15N-Orf63; 0.48 mM 15N-Orf63 (monomeric), 0.12-0.60 mM peptide, PBS pH 7.4, between 1:1 and 1.2:1 peptide:protomer ratio): the complex was deemed to be saturated with peptide ligand
- exchange regime of CSPs, majority of resonances (15N-Orf63; 0.48 mM 15N-Orf63 (monomeric), titrated with peptide, PBS pH 7.4): fast exchange
- exchange regime of CSPs, minority of resonances in helix α2 from S45 onwards (15N-Orf63; 0.48 mM 15N-Orf63 (monomeric), titrated with peptide, PBS pH 7.4, largest measured CSPs): slow exchange
- observed interaction surface (CSPs mapped on the structure) (15N-Orf63; 0.48 mM 15N-Orf63, PBS pH 7.4): consistent with the predicted interaction surface of the model

Molecule: MAIAHAATEYVFADFVLK [reference compound]
- line broadening / chemical shift changes (15N-Orf63 dimer): no chemical shift or line broadening changes

B1: Ea22: protein encoded between the exo and xis genes of phage λ (protein, UniProt P03756 1-182, looked up)
Protein ea22: MSEINSQALREAAEQAMHDDWGFDADLFHELVTPSIVLELLDERERNQQYIKRRDQENEDIALTVGKLRVELETAKSKLNEQREYYEGVISDGSKRIAKLESNEVREDGNQFLVVRHPGKTPVIKHCTGDLEEFLRQLIEQDPLVTIDIITHRYYGVGGQWVQDAGEYLHMMSDAGIRIKGE
- lytic/lysogenic tendency [3]: pro-lysogenic
